The values below come from patent publication US7666817B2, “Cellular libraries of peptide sequences (CLiPS) and methods of using the same” (The Regents of the University of California, priority 2005, dated 2010).

enteropeptidase, sequence (P98072 801-1035 limits assumed): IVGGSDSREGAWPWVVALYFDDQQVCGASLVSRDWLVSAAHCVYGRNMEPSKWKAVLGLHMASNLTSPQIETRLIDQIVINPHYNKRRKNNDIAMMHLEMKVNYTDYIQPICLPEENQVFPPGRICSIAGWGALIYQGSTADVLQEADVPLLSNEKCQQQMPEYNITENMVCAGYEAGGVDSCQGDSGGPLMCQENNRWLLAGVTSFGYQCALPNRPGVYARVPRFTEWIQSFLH

The subject of one series is enteropeptidase.
Assay: not given
The note with it: reported values (Light et al. 1984; Lu et al. 1999); cited from earlier work.
Broadly, the Km is the concentration of substrate that gives half-maximal velocity. “DDDDKGGQS [Canonical, reference compound]”: the Km was 600 µM.

For “tripsinogen: physiological substrate of enteropeptidase”, the Km is 17 µM.

For the next series, the system named is tobacco etch virus protease (TEV). The series is described as follows: Dual-signal CLiPS, TEV cleavage of cell-surface displayed substrates. The note with it: TEVopt library clones; 2 hour incubation with 2 units of TEV; Guava EasyCyte plate reading cytometer. Type of series: biochemical. As to the method: Construction of a control plasmid (pBSGXP2) expressing a fusion of the streptavidin-binding peptide (WCHPMWEVMCLR) (SEQ ID NO:34) (Rice et. al. 2006) and a GGSGGS (SEQ ID NO:01) sequence flanked by flexible linkers on the amino terminus of circularly permuted outer membrane X (CPX) and a binding peptide of SLP-76 (P2) on the carboxy-terminus was performed using primers 1, 2, and 3 with primers 4 and 5. […] Products were digested with SfiI and ligated to similarly digested pBAD33. A substrate library (pBS5XP2) of the form X5, where X is any amino acid, was constructed using PCR with a synthetic oligonucleotide incorporating NNS codons (primer 9) along with primers 1 and 8 (Table 2). The product was digested with SfiI and ligated into a similarly digested pBAD33 plasmid. Transformation of the plasmid library into electrocompetent MC1061 yielded 6×10^7 colony forming units.
tobacco etch virus protease (TEV), sequence (P04517 2038-2255 limits assumed): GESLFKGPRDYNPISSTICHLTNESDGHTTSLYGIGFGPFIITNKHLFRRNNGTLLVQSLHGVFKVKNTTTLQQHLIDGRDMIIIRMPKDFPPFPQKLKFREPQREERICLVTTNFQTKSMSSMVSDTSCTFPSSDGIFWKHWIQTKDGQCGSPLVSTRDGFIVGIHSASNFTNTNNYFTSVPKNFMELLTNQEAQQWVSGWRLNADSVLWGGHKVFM
A second substrate library (pBSToptP2) was created using primer 10 with primers 1 and 8. The product was digested with SfiI and ligated into a similarly digested pBAD33 plasmid. Transformation of the plasmid library into electrocompetent MC1061 yielded 5×10^7 colony forming units.
Streptavidin conjugated phycoerythrin (SAPE) was used for labeling streptavidin binding affinity ligand on the N- and C-termini of CPX (FIG. 15). […] Of the three fluorescent proteins AlajGFP-Mona gave a higher fluorescence and was used for all labeling. The resulting CPX scaffold required a 3 hr induction time due to the additional peptide that was fused to the C-terminus. For optimum labeling of cells without protease reaction, the cells were incubated for 1 hr at 22° C. with SAPE (50 nM) and AlajGFPM (250 nM). […] For the described example below 1 hr incubation was used.
(§1) For screening and clone analysis, overnight cultures were subcultured by dilution into fresh medium (1:50) and grown for 2 hrs at 37° C. The subculture was induced with 0.1% arabinose and incubated with shaking at room temperature for 3 hrs. Cell aliquots were washed with PBS (pH 8.0), and optical density at 600 nm (OD600) was measured to estimate cell concentration. Cells (10^8) were pelleted by centrifugation, the supernatant was removed, and the cells were resuspended in reaction buffer (10 μL). Following addition of the enzyme, the reaction mixture was incubated at room temperature on a rotary shaker. Cells were removed and diluted 100-fold in PBS to stop the reaction, pelleted by centrifugation, and resuspended in PBS containing SA-PE (50 nM) and AlajGFP-MONA. After incubation at room temperature (1 hr), cells were washed with PBS and analyzed or sorted using a FACSAria™ cell sorter (Becton, Dickinson and Company).
(§2) Specifically, for each sample, conversion was determined by flow cytometry analyses using the relationship
(§3) [formula] where (FL−) is the fluorescence after incubating without enzyme, (FL+) is fluorescence after incubation with enzyme, and (FL0) is fluorescence of unlabeled cells. For the recombinant FRET protein reactions, conversion was calculated by dividing the ratiometric FRET signal (yellow fluorescence/cyan fluorescence) by the FRET ratio that results from complete cleavage (Felber et al., Biotechniques 36:878-85 (2004)). For synthetic peptide reactions, conversion was calculated by dividing the fluorescence increase by the fluorescence change due to complete hydrolysis. The reported enteropeptidase KM for the physiological substrate tripsinogen is 17 μM (Light et al., J Biol Chem 259:13195-8 (1984)), but 600 μM for short DDDDK (SEQ ID NO:02) peptides (Lu et al., J Mol Biol 292:361-73 (1999)). Given KM for short peptides is much larger than the substrate concentrations that were used (<5 μM), the Michaelis-Menton model simplifies to
The reaction buffer for TEV assays was 50 mM Tris-Cl pH 8.0 supplemented with 20. mM NaCl and 2 mM CaCl2. […]
On to QLYFQS [C6], for which the “% Conversion” value stood at 61.7894%.

With SLYVQG [E4], the “% Conversion” value is listed as 86.3465%.

As for VLYLQS [A4], the “% Conversion” value came to 85.4432%.

As for ELYAQG [C5], the “% Conversion” value turned out to be 58.8389%.

Consider EVYVQG [B6], for which the “% Conversion” value was found to be 61.0145%.

Regarding FLYLQG [A1], the “% Conversion” value worked out at 91.8387%.

For the substance WLYLQG [D1], the “% Conversion” value is reported as 68.0478%.

Turning to LLYIQG [D4], the “% Conversion” value was determined as 51.6773%.

DVYVQG [A2]: the “% Conversion” value was determined as 52.6409%.

ENLYFQS [Control, reference compound]: the “% Conversion” value amounted to 66.3577%.

In the case of ELYWQG [C4], the “% Conversion” value is given as 68.9173%.

Take ALYIQG [A3]: the “% Conversion” value amounted to 92.212%.

In the case of DLYWQG [C3], the “% Conversion” value came to 73.3768%.

As to SLYWQG [D5], the “% Conversion” value was found to be 71.6599%.

VLYTQG [E6]: the “% Conversion” value was 54.8951%.

The series is the same for the next values; noted with them: top TEV substrates from 5X library; 1 hr with 10 units of TEV.
EEAVL [H07]: the “% Conversion” value amounted to 71%.

Take WEPLW [H08]: the “% Conversion” value is reported as 73%.

Regarding LEQLI [B09], the “% Conversion” value was 76%.

Take WESLY [E11]: the “% Conversion” value was 77%.

As for PEVIY [C10], the “% Conversion” value is on record as 81%.

With EEELY [B02], the “% Conversion” value worked out at 72%.

Regarding GEDLL [F09], the “% Conversion” value worked out at 71%.

In the case of DRELY [F04], the “% Conversion” value turned out to be 79%.

In the next series the target is T1, enteropeptidase (catalytic subunit light chain) (Bos taurus, UniProt P98072).
T1 construct: the catalytic subunit light chain of enteropeptidase (EP) (New England Biolabs); purchased New England Biolabs
T1 sequence (P98072 801-1035 limits assumed): as the sequence (P98072 801-1035 limits assumed) above
The series is described as follows: CLiPS whole-cell assay, enteropeptidase cleavage of cell-surface displayed substrates (FACS). It is filed as biochemical. To be noted: E. coli displaying reporter-substrate, flow cytometry. As for the experimental part: For screening and clone analysis, overnight cultures were subcultured by dilution into fresh medium (1:50) and grown for 2 hours. The subculture was then induced with 0.04% arabinose and incubated with shaking at room temperature. Cell aliquots were harvested washed with PBS (pH 8.0) and absorbance at 600 nm (OD600) was measured to estimated density. Cells were pelleted by centrifugation, the supernatant removed and the cells resuspended in reaction buffer ([…]). The enzyme was added, and the reaction mixture was incubated at room temperature on rotary shaker (60 rpm). To stop the reaction cells were removed and diluted 100-fold in PBS, pelleted by centrifugation, and resuspended in PBS containing SA-PE (50 nM). After incubation at room temperature (1 hr), cells were washed with PBS and analyzed or sorted using a FACSAria™ cell sorter.
For enteropeptidase cleavage assays, cultures were induced for 2 hr. The reaction buffer for enteropeptidase was 50 mM Tris-Cl pH 8.0 supplemented with 20 mM NaCl and 2 mM CaCl2. […]
as §2
[formula] where (FL−) is the fluorescence after incubating without enzyme, (FL+) is fluorescence after incubation with enzyme, and (FL0) is fluorescence of unlabeled cells. For the recombinant FRET protein reactions, conversion was calculated by dividing the ratiometric FRET signal (yellow fluorescence/cyan fluorescence) by the FRET ratio that results from complete cleavage (Felber et al., Biotechniques 36:878-85 (2004)). For synthetic peptide reactions, conversion was calculated by dividing the fluorescence increase by the fluorescence change due to complete hydrolysis. […]
Given the utility of fluorescence-activated cell sorting (FACS) as a quantitative library screening tool, peptidase activity was assayed by displaying reporter-substrates on the surface of Esherichia coli (FIG. 1, panel A). […] In this way, protease activity towards a given substrate would be detectable by monitoring whole-cell fluorescence using FACS. […]
In general terms: In flow cytometry, cells or beads pass a laser one at a time.
On to “DDDDKGGQS [Canonical, reference compound]”, for which the “change in mean fluorescence intensity after incubation with enteropeptidase before SAPE labeling” value is reported as “roughly twenty-fold decrease”.

With GGQSGQ, the “change in mean fluorescence intensity after incubation with enteropeptidase before SAPE labeling” value is “minimal change in fluorescence”.

Still in this series, the particulars now being: cell-surface displayed substrates, time-dependent conversion fit to Michaelis-Menton model.
In the case of SSGDRMWGG [EP 4.3], the “second order rate constant (kcat/KM) relative to canonical substrate DDDDK” value was determined as 13 fold.

The target of another series is T2, enteropeptidase (Bos taurus, UniProt P98072).
T2 construct: the catalytic subunit light chain of enteropeptidase (EP) (New England Biolabs); purchased New England Biolabs
T2 sequence (P98072 801-1035 limits assumed): as above
The series is described as follows: Enteropeptidase cleavage of soluble CyPet-YPet FRET fusion protein substrates (fluorimetry). The note with it: CyPet-YPet fusion protein substrate ~0.5 μM, 0.29 nM enteropeptidase. Type of series: biochemical. From the text:
Substrates EP2.1, EP4.1, EP4.2, and EP4.3 identified for enteropeptidase by CLiPS were amplified with YPet using reverse primer 7 with forward primers 8, 9, 10, and 11, respectively (Table1). The canonical EP substrate was amplified as a fusion to YPet using primers 7 and 12 (Table 1). As a negative control, a GSGSGS (SEQ ID NO:18) linker was substituted for the six amino acid substrate sequence using primers 7 and 13 (Table 1). These products were digested with kpnI and sphI and ligated to similarly digested plasmid containing CyPET to yielded plasmids pBC21Y, pBC41Y, pBC42Y, pBC43Y pBCEPY and pBCGSY.
Overnight cultures of MC1061 transformed with the FRET substrate encoding expression vectors described above were subcultured 1:50 and grown for 2 hrs. […] Reactions were performed in 100 μL of enteropeptidase reaction buffer with ˜0.5 μM fusion protein, as determined using the extinction coefficient of YPet at 514 nm (Nguyen et al., Nat Biotechnol 23:355-60 (2005)) and Beer's law. Enteropeptidase was added to each reaction to a final concentration of 0.29 nM and fluorescence emission at 475 nm (cyan) and 527 nm (yellow) was monitored upon excitation at 433 nm using a Safire fluorimeter (Tecan).
[formula] where (FL−) is the fluorescence after incubating without enzyme, (FL+) is fluorescence after incubation with enzyme, and (FL0) is fluorescence of unlabeled cells. […]
SSGDRMWGG [EP 4.3]: the “cleavage rate relative to DDDDK” value was found to be 17 fold.

In the next series the target is T3, MMP-1 (Homo sapiens, UniProt P03956).
T3 sequence (P03956 100-469): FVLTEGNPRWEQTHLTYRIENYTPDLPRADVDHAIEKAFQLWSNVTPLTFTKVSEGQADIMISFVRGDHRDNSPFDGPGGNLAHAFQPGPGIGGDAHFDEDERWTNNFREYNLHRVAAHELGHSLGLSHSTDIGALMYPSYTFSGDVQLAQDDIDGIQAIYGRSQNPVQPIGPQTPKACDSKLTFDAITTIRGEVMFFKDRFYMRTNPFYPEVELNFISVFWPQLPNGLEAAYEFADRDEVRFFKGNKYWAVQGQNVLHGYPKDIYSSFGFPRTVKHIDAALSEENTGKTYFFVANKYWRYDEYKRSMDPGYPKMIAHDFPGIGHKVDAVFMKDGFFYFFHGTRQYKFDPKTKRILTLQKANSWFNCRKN
The series is described as follows: Dual-signal CLiPS, MMP-1 cleavage of cell-surface displayed substrates. To be noted: MMP substrates from sort 4 of 5X library; cells incubated with 1.5 pM MMP-1. It is filed as biochemical. As to the method:
as §1, §2, §3
The MMP-1 assays were performed by incubating cells with 1.5 pM MMP-1. Sorts for hydrolysis were performed after 16 hrs, 19 hrs, and 16 hrs for sorts 1, 3 and 5, respectively (FIGS. 9 and 10). Enrichment after 4 sorts can be seen by the fluorescence shift due to MMP-1 incubation (FIG. 10) and this population was sorted a final time for hydrolyzed substrates. These clones were sequences and assayed for conversion (Table 8). […] Many of these sequences have been reported as MMP-1 substrates. However, substrates of MMP-1 with amino acids M and L at positions P1 and P3 have not previously been reported.
Substance VPVNM came in with a % Conversion of 76%.

As to PVPMV, the % Conversion is 49.6%.

As to TPLAL, the % Conversion was found to be 41.7%.

For VPVVM, the % Conversion was determined as 36.6%.

Regarding PVAMR, the % Conversion was found to be 72.9%.

Regarding PMAVI, the % Conversion was 69.9%.

For the substance PMAVT, the % Conversion is 50.4%.

For MPLVM, the % Conversion was 65.9%.

As to PVNVV, the % Conversion is 78.9%.

For MPVVL, the % Conversion is 42.8%.
